Counter-ions that a name gives are not always drawn.
Test system: IL-1β release upon NLRP3 activation in peripheral blood mononuclear cells (PBMC)
Assay: PBMC IC50 Determination Assay
Assay type: cell-based
Details: Homo sapiens, PBMC, read-out: PBMC IC50
Experimental: PBMC IC50 Determination Assay
The compounds of the present disclosure were tested for their inhibitory activity against IL-1β release upon NLRP3 activation in peripheral blood mononuclear cells (PBMC).
Isolated cells were seeded into the wells of a 96-well plate and incubated for 3 h with lipopolysaccharide (LPS). Following medium exchange, the compounds of the present disclosure were added (a single compound per well) and the cells were incubated for 30 min. Next, the cells were stimulated either with ATP (5 mM) or nigericin (10 μM) for 1 h and the cell culture media from the wells were collected for further analysis.
The release of IL-1β into the media was determined by a quantitative detection of IL-1β in the media using an IL-1β enzyme-linked immunosorbent assay (ELISA) Ready-SET-Go!, eBioscience cat. […] Subsequently, plates were blocked with blocking buffer for 1 h at room temperature (rt) and after washing with a buffer (PBS with 0.05% Tween-20) incubated with protein standard and culture media. […] Plates were washed and incubated with HRP-streptavidin for 30 min at rt and washed again. The signal was developed after addition of 3,3,5,5-tetramethylbenzidine-peroxidase (TMB) until colour appeared and the reaction was stopped by 2 M H2SO4. A microplate spectrophotometer (BioTek) was used to detect signals with 450 nm. The detection range of IL-1β ELISA was 2-150 ng/ml.

Work on `CN(C)Cc1cnn(C[C@@H](OC(=O)Nc2c3c(cc4c2CCC4)CCC3)C(=O)O)c1` [Compound 98, (2R)-3-{4-[(dimethylamino)methyl]-1H-pyrazol-1-yl}-2-{[(1,2,3,5,6,7-hexahydro-s-indacen-4-yl)carbamoyl]oxy}propanoic acid hydrochloride] yielded an IC50 of 1000 to 10000 nM.

Same assay, conditions: Homo sapiens; LPS-primed PBMC, 30 min compound, stimulated with ATP (5 mM) or nigericin (10 μM) for 1 h; IL-1β ELISA; read-out: PBMC IC50

Compared with `CCOC(=O)C(Cn1cccn1)OC(=O)Nc1c(C)ccc2ccccc12` (stereo not drawn) [Compound 86, Ethyl 2-{[(2-methylnaphthalen-1-yl)carbamoyl]oxy}-3-(1H-pyrazol-1-yl)propanoate], `CCOC(=O)C(Cn1cccn1)OC(=O)Nc1c(C)csc1C` (stereo not drawn) [Compound 99, Ethyl 2-{[(2,4-dimethylthiophen-3-yl)carbamoyl]oxy}-3-(1H-pyrazol-1-yl)propanoate] is higher in IC50: 10 to 100 nM for the first, 100 to 1000 nM for the second.

`CCOC(=O)C(Cn1cccn1)OC(=O)NC1CCCCC1C` (stereo not drawn) [Compound 87, Ethyl 2-{[(2-methylcyclohexyl)carbamoyl]oxy}-3-(1H-pyrazol-1-yl)propanoate] and `CCOC(=O)C(Cn1cccn1)OC(=O)Nc1c2c(cc3c1OCC3)OCC2` (stereo not drawn) [Compound 100, Ethyl 2-[({4,10-dioxatricyclo[7.3.0.0^3,7]dodeca-1,3(7),8-trien-2-yl}carbamoyl)oxy]-3-(1H-pyrazol-1-yl)propanoate] fall in the same range of IC50: 1000 to 10000 nM for the first, 1000 to 10000 nM for the second.

First: CCOC(=O)[C@@H](Cn1cc(Cl)cn1)OC(=O)Nc1c2c(cc3c1CCC3)CCC2 [Compound 88, Ethyl (2R)-3-(4-chloro-1H-pyrazol-1-yl)-2-{[(1,2,3,5,6,7-hexahydro-s-indacen-4-yl)carbamoyl]oxy}propanoate]
Second: CCOC(=O)C(Cn1cc(OC)cn1)OC(=O)Nc1c2c(cc3c1CCC3)CCC2 (stereo not drawn) [Compound 92, Ethyl 2-{[(1,2,3,5,6,7-hexahydro-s-indacen-4-yl)carbamoyl]oxy}-3-(4-methoxy-1H-pyrazol-1-yl)propanoate]
The IC50 of the first is lower: 10 to 100 nM for the first, 100 to 1000 nM for the second.

`CCOC(=O)[C@@H](Cn1cnc(C#N)c1)OC(=O)Nc1c2c(cc3c1CCC3)CCC2` [Compound 89, Ethyl (2R)-3-(4-cyano-1H-imidazol-1-yl)-2-{[(1,2,3,5,6,7-hexahydro-s-indacen-4-yl)carbamoyl]oxy}propanoate] and `CCOC(=O)[C@@H](Cn1ccc(C#N)n1)OC(=O)Nc1c2c(cc3c1CCC3)CCC2` [Compound 96, Ethyl (2R)-3-(3-cyano-1H-pyrazol-1-yl)-2-{[(1,2,3,5,6,7-hexahydro-s-indacen-4-yl)carbamoyl]oxy}propanoate] fall in the same range of IC50: 100 to 1000 nM for the first, 100 to 1000 nM for the second.

Compared with `CCOC(=O)[C@@H](Cn1cncc1C#N)OC(=O)Nc1c2c(cc3c1CCC3)CCC2` [Compound 90, Ethyl (2R)-3-(5-cyano-1H-imidazol-1-yl)-2-{[(1,2,3,5,6,7-hexahydro-s-indacen-4-yl)carbamoyl]oxy}propanoate], `CCOC(=O)[C@@H](Cn1ncnc1C)OC(=O)Nc1c2c(cc3c1CCC3)CCC2` [Compound 103, Ethyl (2R)-2-{[(1,2,3,5,6,7-hexahydro-s-indacen-4-yl)carbamoyl]oxy}-3-(5-methyl-1H-1,2,4-triazol-1-yl)propanoate] is lower in IC50: 1000 to 10000 nM for the first, 10 to 100 nM for the second.

Compared with `CCOC(=O)C(Cn1cccn1)OC(=O)Nc1c(C)cc(C(F)(F)F)cc1C` (stereo not drawn) [Compound 91, Ethyl 2-({[2,6-dimethyl-4-(trifluoromethyl)phenyl]carbamoyl}oxy)-3-(1H-pyrazol-1-yl)propanoate], `CCOC(=O)[C@@H](Cn1cc(C(F)(F)F)cn1)OC(=O)Nc1c2c(cc3c1CCC3)CCC2` [Compound 97, Ethyl (2R)-2-{[(1,2,3,5,6,7-hexahydro-s-indacen-4-yl)carbamoyl]oxy}-3-[4-(trifluoromethyl)-1H-pyrazol-1-yl]propanoate] is lower in IC50: 1000 to 10000 nM for the first, 100 to 1000 nM for the second. The second is the more potent here.

`CCOC[C@@H](OC(=O)Nc1c2c(cc3c1CCC3)CCC2)C(=O)OCC` [Compound 95, Ethyl (2R)-3-ethoxy-2-{[(1,2,3,5,6,7-hexahydro-s-indacen-4-yl)carbamoyl]oxy}propanoate] and `CCOC(=O)[C@@H](COCCOC)OC(=O)Nc1c2c(cc3c1CCC3)CCC2` [Compound 101, Ethyl (2R)-2-{[(1,2,3,5,6,7-hexahydro-indacen-4-yl)carbamoyl]oxy}-3-(2-methoxyethoxy)propanoate] fall in the same range of IC50: 100 to 1000 nM for the first, 100 to 1000 nM for the second.

Compared with `CCOC(=O)[C@@H](COC1CCOCC1)OC(=O)Nc1c2c(cc3c1CCC3)CCC2` [Compound 102, Ethyl (2R)-2-{[(1,2,3,5,6,7-hexahydro-s-indacen-4-yl)carbamoyl]oxy}-3-(oxan-4-yloxy)propanoate], `CCOC(=O)[C@@H](COC(C)C)OC(=O)Nc1c2c(cc3c1CCC3)CCC2` [Compound 104, Ethyl (2R)-2-{[(1,2,3,5,6,7-hexahydro-s-indacen-4-yl)carbamoyl]oxy}-3-(propan-2-yloxy)propanoate] is higher in IC50: 100 to 1000 nM for the first, 1000 to 10000 nM for the second. The first is the more potent here.

Compared with `CCOC(=O)[C@@H](Cn1cnc(C)n1)OC(=O)Nc1c2c(cc3c1CCC3)CCC2` [Compound 105, Ethyl (2R)-2-{[(1,2,3,5,6,7-hexahydro-s-indacen-4-yl)carbamoyl]oxy}-3-(3-methyl-1H-1,2,4-triazol-1-yl)propanoate], `O=C(Nc1c2c(cc3c1CCC3)CCC2)O[C@H](Cn1cncn1)C(=O)O` [Compound 114, (2R)-2-{[(1,2,3,5,6,7-hexahydro-s-indacen-4-yl)carbamoyl]oxy}-3-(1H-1,2,4-triazol-1-yl)propanoic acid] is higher in IC50: 10 to 100 nM for the first, 100 to 1000 nM for the second.

`O=C(Nc1c2c(cc3c1CCC3)CCC2)O[C@H](Cc1ncccn1)C(=O)O` [Compound 106, (2R)-2-{[(1,2,3,5,6,7-hexahydro-s-indacen-4-yl)carbamoyl]oxy}-3-(pyrimidin-2-yl)propanoic acid] and `O=C(Nc1c2c(cc3c1CCC3)CCC2)O[C@H](Cc1cnccn1)C(=O)O` [Compound 109, (2R)-2-{[(1,2,3,5,6,7-hexahydro-s-indacen-4-yl)carbamoyl]oxy}-3-(pyrazin-2-yl)propanoic acid] fall in the same range of IC50: 100 to 1000 nM for the first, 100 to 1000 nM for the second.

`O=C(Nc1c2c(cc3c1CCC3)CCC2)O[C@H](Cc1cnccn1)C(=O)OC1CCCC1` [Compound 111, Cyclopentyl (2R)-2-{[(1,2,3,5,6,7-hexahydro-s-indacen-4-yl)carbamoyl]oxy}-3-(pyrazin-2-yl)propanoate] and `O=C(Nc1c2c(cc3c1CCC3)CCC2)O[C@H](Cn1cncn1)C(=O)OC1CCCC1` [Compound 116, Cyclopentyl (2R)-2-{[(1,2,3,5,6,7-hexahydro-s-indacen-4-yl)carbamoyl]oxy}-3-(1H-1,2,4-triazol-1-yl)propanoate] cannot be ordered by IC50: < 10 nM for the first, < 10 nM for the second.

`N#Cc1cnn(C[C@@H](OC(=O)Nc2c3c(cc4c2CCC4)CCC3)C(=O)OC2CCCC2)c1` [Compound 113, Cyclopentyl (2R)-3-(4-cyano-1H-pyrazol-1-yl)-2-{[(1,2,3,5,6,7-hexahydro-s-indacen-4-yl)carbamoyl]oxy}propanoate] and `CC(C)OC(=O)C(Cc1cnc(C#N)cn1)OC(=O)Nc1c2c(cc3c1CCC3)CCC2` (stereo not drawn) [Compound 119, Propan-2-yl 3-(5-cyanopyrazin-2-yl)-2-{[(1,2,3,5,6,7-hexahydro-s-indacen-4-yl)carbamoyl]oxy}propanoate] cannot be ordered by IC50: < 10 nM for the first, < 10 nM for the second.

First: Cc1cncc(CC(OC(=O)Nc2c3c(cc4c2CCC4)CCC3)C(=O)OC(C)C)n1 (stereo not drawn) [Compound 117, Propan-2-yl 2-{[(1,2,3,5,6,7-hexahydro-s-indacen-4-yl)carbamoyl]oxy}-3-(6-methylpyrazin-2-yl)propanoate]
Second: Cc1cnc(CC(OC(=O)Nc2c3c(cc4c2CCC4)CCC3)C(=O)OC(C)C)cn1 (stereo not drawn) [Compound 121, Propan-2-yl 2-{[(1,2,3,5,6,7-hexahydro-s-indacen-4-yl)carbamoyl]oxy}-3-(5-methylpyrazin-2-yl)propanoate]
The IC50 of the first is lower: < 10 nM for the first, 10 to 100 nM for the second. The first is the more potent here.

First: CC1CCCC(NC(=O)OC(Cc2ncccn2)C(=O)OC(C)C)C1 (stereo not drawn) [Compound 118, Propan-2-yl 2-{[(3-methylcyclohexyl)carbamoyl]oxy}-3-(pyrimidin-2-yl)propanoate]
Second: CC(C)OC(=O)C(Cc1ncccn1)OC(=O)NC1(C)CCCCC1 (stereo not drawn) [Compound 122, Propan-2-yl 2-{[(1-methylcyclohexyl)carbamoyl]oxy}-3-(pyrimidin-2-yl)propanoate]
The IC50 of the first is lower: 1000 to 10000 nM for the first, > 10000 nM for the second. The first is the more potent here.

First: Cc1nccc(CC(OC(=O)Nc2c3c(cc4c2CCC4)CCC3)C(=O)OC(C)C)n1 (stereo not drawn) [Compound 120, Propan-2-yl 2-{[(1,2,3,5,6,7-hexahydro-s-indacen-4-yl)carbamoyl]oxy}-3-(2-methylpyrimidin-4-yl)propanoate]
Second: CC(C)OC(=O)C(Cc1ncccn1)OC(=O)Nc1c(F)cccc1Cl (stereo not drawn) [Compound 123, Propan-2-yl 2-{[(2-chloro-6-fluorophenyl)carbamoyl]oxy}-3-(pyrimidin-2-yl)propanoate]
The IC50 of the first is lower: 10 to 100 nM for the first, 100 to 1000 nM for the second. The first is the more potent here.

Compared with `CC(C)OC(=O)C(Cc1ncccn1)OC(=O)Nc1c(F)cccc1F` (stereo not drawn) [Compound 124, Propan-2-yl 2-{[(2,6-difluorophenyl)carbamoyl]oxy}-3-(pyrimidin-2-yl)propanoate], `CC(C)OC(=O)C(Cc1ncccn1)OC(=O)Nc1c(Cl)cccc1Cl` (stereo not drawn) [Compound 125, Propan-2-yl 2-{[(2,6-dichlorophenyl)carbamoyl]oxy}-3-(pyrimidin-2-yl)propanoate] is higher in IC50: 100 to 1000 nM for the first, 1000 to 10000 nM for the second.

— patent US12247011B2, “Selective inhibitors of NLRP3 inflammasome” (NodThera Limited, priority 2017, dated 2025)
